In patent US4745112A, “Oxadiazolylimidazobenzodiazepine, compositions, and method III” (A/S Ferrosan, priority 1985, dated 1988):

Experiments:
benzodiazepine receptors = test: In vivo inhibition of 3H-flunitrazepam binding to mouse forebrain membranes, test substances i.p. (Procedure 130); details: 3H-flunitrazepam i.v., dose inhibiting 50% of specific forebrain binding
Procedure: I. In vivo inhibition of ^3 H-flunitrazepam binding to mouse forebrain membranes by test substances administered intraperitoneally. (Procedure 130)
Twenty minutes after a dose of ^3 H-flunitrazepam (^3 H-FNM) (200 μCi/kg, i.v.) the amount of specific ^3 H-FNM binding to brain benzodiazepine receptors has reached its maximal value.
Suspensions of test substances (2 mg/ml) are prepared in 5% Duphasol-X* by sonification for 10 min using a Branson B15 microtip ultrasonifier (setting 7). Groups of three mice (female, NMR, 18-22 gram) are injected with the test substance at 100 mg/kg intraperitoneally. Fifteen minutes after test substance administration the mice are challenged with 4 μCi intravenously of ^3 H-FNM (70-90 Ci/mole) in 200 μl physiological saline. Twenty minutes after ^3 H-FNM administration mice are sacrificed by decapitation, the forebrains rapidly excised (within 30 sec) and homogenized in 12 ml of icecold 25 mM KH2 PO4, pH 7.1, using an Ultra-Turrax homogenizer fitted with an N 10 shaft. Two aliquots of 1 ml are immediately filtered through Whatman GF/C glassfibre filters and washed with 2×5 ml of the above mentioned buffer. The amounts of radioactivity on the filters are determined by conventional scintillation counting. One group of untreated mice serves as controls. One to three mice are injected with 25 mg/kg clonazepam i.p. 30 minutes before ^3 H-FNM to determine the amount of non-specific ^3 H-FNM binding, which should be between 8-15% of total binding.
When doses of 100 mg/kg inhibit more than 50% of specific ^3 H-flunitrazepam binding; test substances are administered in doses, which are factors of 3.16 times lower than 100 mg/kg.
The ED50 for a test substance is defined as that dose which inhibits 50% of specific ^3 H-FNM binding. Specific binding is the amount of binding in controls minus the amount binding in clonazepam-treated mice.
The ED50 value is determined from dose response curves. If only one dose of test substance is administered the ED50 value is calculated as follows, provided that the inhibition of specific binding is within the range of 25-75%: [formula] where Co is specific binding in controls and Cx is specific binding in mice treated with test substance.

[1] = test system: pentylenetetrazol induced clonic convulsions; test: Pentazol clonic conv. mice (i.p.) (Procedure 400); type: in vivo, mice (NMRI); details: Mus musculus, ip, 0.5 h, i.p. 30 min before pentylenetetrazol 150 mg/kg s.c., clonic seizures, read-out: ED50 activity against pentazol induced convulsions, clonic
Procedure: II. Pentazol clonic conv. mice (i.p.) (Procedure 400)
(§1) Pentylenetetrazol induces clonic and tonic convulsions in mice at doses of 60-120 mg/kg s.c. The mechanism is unknown but seems to be due to some effects through the GABA receptor/benzodiazepine receptor/chloride ionophore complex. Antagonism of convulsions induced by maximal doses of pentylenetetrazol is considered predictive for drugs effective against petit mal epilepsia and anxiety.
150 mg/kg pentylenetetrazol dissolved in 0.9% NaCl is given by the subcutaneous route in volume of 15 ml/kg to male or female NMRI mice weighing 20-25 g 30 min after an intraperitoneal injection of a test compound.
The ED50 value is calculated as the dose in μg/kg at which seizures are inhibited in 50% of the animals using a computer program based on the method of Litchfield and Wilcoxon (1949).

[2] = test system: pentylenetetrazol induced tonic convulsions; test: Pentazol tonic conv. mice i.p. (Procedure 401); type: in vivo, mice (NMRI); details: Mus musculus, ip, 0.5 h, i.p. 30 min before pentylenetetrazol 150 mg/kg s.c., tonic seizures, read-out: ED50 activity against pentazol induced convulsions, tonic
Procedure: III. Pentazol tonic conv. mice i.p. (Procedure 401)
as §1, with “seem” for “seems”
150 mg/kg pentylenetetrazol (Pentazol, Sigma) dissolved in 0.9% NaCl is given by the subcutaneous route in volumes of 15 ml/kg to male or female NMRI mice weighing 20-25 g 30 min after an intraperitoneal injection of a test compound.
The ED50 value is calculated as the dose in μg/kg where seizures are inhibited in 50% of the animals using a computer program based on the method of Litchfield and Wilcoxon (1949).

Structure (SMILES) | ED50 binding in vivo (benzodiazepine receptors) [mg/kg] | ED50 [1] [mg/kg] | ED50 [2] [mg/kg]
CN1Cc2c(-c3noc(C4CC4)n3)ncn2-c2cccc(F)c2C1=O | 0.09 | 0.02 | 0.005
CN1Cc2c(-c3noc(C4CC4)n3)ncn2-c2cccc(C(F)(F)F)c2C1=O | 0.01 | 0.008 | 0.003
CC(C)c1noc(-c2ncn3c2CN(C)C(=O)c2c(Cl)cccc2-3)n1 | 0.2 | 0.6 | 0.2
CN1Cc2c(-c3nc(C4CC4)no3)ncn2-c2cccc(Cl)c2C1=O | 0.06 | 0.09 | 0.03
O=C1c2c(Cl)cccc2-n2cnc(-c3noc(C4CC4)n3)c2C2CCCN12 (stereo not drawn) | 0.96 |  | 
O=C1c2c(Cl)cccc2-n2cnc(-c3nc(C4CC4)no3)c2C2CCCN12 (stereo not drawn) | 0.23 |  | 0.08
